The source made the active and inactive calls. The calls are words filed in the database; no cut-off is given here.
Experiments:
Botrytis cinerea [1] = assay: Antifungal activity against Botrytis cinerea by centerpoint incubation disk assay; format: functional, organism-based
Botrytis cinerea [2] = assay: Antifungal activity against Botrytis cinerea at 100 ppm for 3 days by centerpoint incubation disk assay; format: functional, organism-based
Botrytis cinerea [3] = assay: Antifungal activity against Botrytis cinerea at 130 ppm for 5 days by centerpoint incubation disk assay; format: functional; conditions: 120 h, read-out: IZ
Botrytis cinerea [4] = assay: Antifungal activity against Botrytis cinerea at 17 ppm for 3 days by centerpoint incubation disk assay; format: functional; conditions: 72 h, read-out: IZ

With `CC1=CC[C@@H]2[C@H]3[C@@H]1CC[C@@]3(C)CC2(C)C` the Activity (Botrytis cinerea [1]) was “inactive”.
`CC1(C)C[C@@]2(O)[C@]3(C)CCC[C@@]2(C)[C@H]1CC3` [ACETYLGINSENOL] was tested, and the Activity (Botrytis cinerea [2]) was “Active” and the zone of inhibition at 130 ppm (Botrytis cinerea [3]) was 6 mm.
For `CC1(C)C[C@@]2(C)CCC[C@]3(C)CC[C@@H]1[C@]32O`, the Activity (Botrytis cinerea [2]) was “Active” and the zone of inhibition at 17 ppm (Botrytis cinerea [4]) was 20 mm.

From ChEMBL document CHEMBL1148038, “Inhibition of Botrytis cinerea by New Sesquiterpenoid Compounds Obtained from the Rearrangement of Isocaryophyllene” (1994)
